Consider two molecules from PMC9150102 (Journal of Medicinal Chemistry, 2022).

The target in experiment [1] is T1, Na^+/K^+ ATPase-alpha1 isoform purified from dog kidneys (Canis lupus familiaris, UniProt P50997).
T1 construct: excised from 1–3-year-old male beagle dogs; from tissue; host or cells: dog (beagle) kidney outer medulla, Jørgensen purification
Briefly: Na+/K+ ATPase activity inhibition, purified dog kidney enzyme (32P-ATP hydrolysis). The class given is biochemical. The protocol:
Compounds were tested in a concentration range from 10^–9 to 10^–4 M on a purified renal Na^+/K^+ ATPase preparation with a specific activity of 14 μmol/min/mg protein.
Figure 2 Na^+/K^+ ATPase activity inhibition in a dog purified enzyme preparation. All compounds were tested in a concentration range from 10^–9 to 10^–4 M in comparison to ouabain.
The inhibitory effect of compounds was tested at multiple concentrations on Na^+/K^+ ATPase-alpha1 isoform purified from dog kidneys. […]
Renal Na+/K+ ATPase purification and activity
Purification of renal Na+/K+ ATPase was performed according to the method of Jørgensen2. Kidneys were excised from 1–3-year-old male beagle dogs, obtained from the General Pharmacology Department of Sigma-tau, Pomezia, Italy, under pentobarbital anesthesia. Kidneys were sliced and the outer medulla was dissected, pooled and suspended (1g in 10 ml) in a sucrose-histidine solution, containing 250 mM sucrose, 30 mM histidine and 5 mM EDTA, pH 7.2 and homogenized. The homogenate was centrifuged at 6,000 g for 15 min, the supernatant was decanted and centrifuged at 48,000 g for 30 min. The pellet was suspended in the sucrose-histidine buffer and incubated for 20 min with a sodium-dodecyl-sulphate (SDS) solution, dissolved in a gradient buffer, containing 25 mM imidazole and 1 mM EDTA, pH 7.5. The sample was layered on the top of a sucrose discontinuous gradient (10, 15 and 29.4%) and centrifuged at 60,000 g for 115 min. The final pellet was suspended in the gradient buffer.
Na+/K+ ATPase activity was assayed by measuring 32P-ATP hydrolysis, as previously described3.
Increasing concentrations of the standard ouabain, or tested compound, were incubated with 0.3 μg of purified dog kidney enzyme for 10 min at 37°C in 120 μl final volume of a medium, containing 140 mM NaCl, 3 mM MgCl2, 50 mM Hepes-Tris, 3 mM ATP, pH 7.5. Then, 10 μl of incubation solution containing 10 mM KCl and 20 nCi of 32P-ATP (3-10 Ci/mmol, Perkin Elmer) were added, the reaction continued for 15 min at 37°C and was stopped by acidification with 20% ice-cold perchloric acid.
32P was separated by centrifugation with activated Charcoal (Norit A, Serva) and the radioactivity was measured. Effects of increasing concentrations of the tested compound were compared to ouabain, as positive standard, and to vehicle (control) at 37°C. The inhibitory activity was expressed as percent of activity in control. The concentration of compound causing 50% inhibition of the Na+/K+ ATPase activity (IC50) was calculated by non-linear fitting of data points (KaleidagraphTM, Sinergy Software). […]

The target in the next experiment is T2, SERCA1 (Cavia porcellus, UniProt H0UXI0).
T2 construct: from tissue; host or cells: adult male guinea pig fast-twitch hind leg muscle, SR microsomes
T2 sequence (H0UXI0 1-1001): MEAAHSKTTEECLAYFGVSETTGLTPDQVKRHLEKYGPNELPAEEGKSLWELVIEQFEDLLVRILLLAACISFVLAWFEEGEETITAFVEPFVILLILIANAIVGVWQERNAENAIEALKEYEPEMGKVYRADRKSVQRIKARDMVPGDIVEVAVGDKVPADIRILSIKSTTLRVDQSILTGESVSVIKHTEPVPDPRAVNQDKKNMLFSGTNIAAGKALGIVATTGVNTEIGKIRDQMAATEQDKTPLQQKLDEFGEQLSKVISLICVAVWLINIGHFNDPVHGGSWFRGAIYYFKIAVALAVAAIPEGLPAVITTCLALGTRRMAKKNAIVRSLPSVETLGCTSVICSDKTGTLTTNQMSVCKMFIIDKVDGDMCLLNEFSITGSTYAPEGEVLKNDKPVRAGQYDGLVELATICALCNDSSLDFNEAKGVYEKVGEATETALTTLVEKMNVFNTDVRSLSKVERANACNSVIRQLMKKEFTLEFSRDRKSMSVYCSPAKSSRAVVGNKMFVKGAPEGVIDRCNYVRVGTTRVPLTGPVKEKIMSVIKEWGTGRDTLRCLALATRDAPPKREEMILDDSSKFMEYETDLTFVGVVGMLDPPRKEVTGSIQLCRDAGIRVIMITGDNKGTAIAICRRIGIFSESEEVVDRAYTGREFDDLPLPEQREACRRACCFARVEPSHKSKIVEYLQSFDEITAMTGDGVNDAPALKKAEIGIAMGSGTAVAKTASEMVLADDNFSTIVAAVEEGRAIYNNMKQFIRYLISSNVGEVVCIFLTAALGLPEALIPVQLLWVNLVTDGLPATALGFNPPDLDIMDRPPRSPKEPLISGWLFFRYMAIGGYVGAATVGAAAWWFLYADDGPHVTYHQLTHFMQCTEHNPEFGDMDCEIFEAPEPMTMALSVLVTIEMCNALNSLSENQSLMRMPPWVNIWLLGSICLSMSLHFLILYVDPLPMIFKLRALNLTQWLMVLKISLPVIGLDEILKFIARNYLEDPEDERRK
Briefly: SERCA1 ATPase activity in PLN-free skeletal muscle microsomes. It counts as biochemical, guinea pig. The settings on record: 30 to 1000 nM. The protocol:
(§1) Data are the mean ± SEM. *p < 0.05 (one-way RM ANOVA plus post hoc Tukey’s multiple comparisons or paired t-test).
(§2) Measurements were performed in cardiac SR microsomes (guinea pig) and in whole tissue homogenates (rat). Cardiac preparations included SERCA2a and PLN. To test for PLN involvement in the effect of compounds, SERCA1 activity was measured in PLN-free microsomes (from guinea pig skeletal muscle) before and after reconstitution with the synthetic PLN1–32 inhibitory fragment at a ratio of 300:1 for PLN/SERCA. […] Either an increase in Vmax (rat) or a decrease in KdCa (increased Ca^2+ affinity) (guinea pig) stands for enhancement of SERCA function.
(§3) (rats). As verified by Western blot, cardiac microsomes preparations included SERCA2a and PLN and skeletal muscle ones included SERCA1 only.
(§4) SERCA stimulation4, compounds were also tested on SERCA1 in microsomes of guinea-pig skeletal muscle (PLN-free) before and after reconstitution with the PLN1-32 inhibitory fragment at a ratio of 300:1 […]
SERCA2a ATPase activity was measured as the rate of 32P-ATP release at multiple Ca2+ concentrations (100-2000 nM) in the absence and presence of tested compounds, as previously described5. […] 32P was separated by centrifugation with activated charcoal (Norit A, Serva) and the radioactivity was measured. […]

Experiment [2] concerns SERCA1 reconstituted with PLN1–32 fragment. Briefly: SERCA1 ATPase activity after reconstitution with PLN1-32 fragment. The class given is biochemical, guinea pig. The settings on record: 30 to 1000 nM. The method, then: as §1, §2, §3, §4
Tissues were homogenized, subjected to centrifugation to obtain SR -enriched microsomes and sarcomeric proteins were extracted, as previously described 4.
In the case of guinea-pig hearts, LV tissues were homogenized in 4 volumes of 10 mM NaHCO3, 1 mM PMSF, 10 μg/ml aprotinin and leupeptin (pH 7) and centrifuged at 12,000g for 15 minutes. Supernatants were filtered and centrifuged at 100,000 g for 30 min. Contractile proteins were extracted by suspending the pellets with 0.6 M KCl, 30 mM histidine, pH 7 and further centrifugation at 100,000 g for 30 min.
Final pellets were reconstituted with 0.3 M sucrose, 30 mM histidine, pH 7, to obtain SR-enriched […]
SERCA2a ATPase activity was measured as the rate of 32P-ATP release at multiple Ca2+ concentrations (100-2000 nM) in the absence and presence of tested compounds, as previously described5. Increasing concentrations of each compound were pre-incubated with 2 μg of cardiac preparations for 5 min at 4° C in 80 μl of a solution containing 100 mM KCl, 5 mM MgCl2, 1 μM A23187, 20 mM Tris, pH 7.5. Then, 20 μl of 5 mM Tris-ATP containing 50 nCi of 32P-ATP (3-10 Ci/mmol, Perkin Elmer) were added. The ATP hydrolysis was continued for 15 min at 37°C and the reaction was stopped by acidification with 100 μl of 20% ice-cold perchloric acid. 32P was separated by centrifugation with activated charcoal (Norit A, Serva) and the radioactivity was measured. SERCA2a-dependent ATPase activity was identified as the portion of total hydrolytic activity inhibited by cyclopiazonic acid (CPA, 10 µM). Technical replicates were used to ensure the reliability of single values.
Reconstitution of SERCA1 with PLN1-32 synthetic fragment
Adult healthy male guinea-pigs were used to prepare SERCA1-enriched SR microsomes from fast-twitch hind leg muscles. Microsomes were prepared as described for SERCA2a preparations. For reconstitution experiments, SERCA1 (PLN-free) was pre-incubated with synthetic PLN1-32 fragment (canine sequence, Biomatik Corporation, Canada) in 20 mM imidazole, pH 7, at 1:300 SERCA1:PLN ratio for 30 min at room temperature. After pre-incubation, SERCA1 (PLN-free) alone, or reconstituted with PLN1-32 […]
fragment, was utilized for SERCA activity measurement by using 32P-ATP hydrolysis method at different

A word on the IC50: it is the concentration that gives 50% inhibition. Higher therefore signals lower potency. As for `C[C@]12CC[C@H](CCCC(=O)O)C[C@@H]1[C@@H](O)C[C@@H]1[C@@H]2CC[C@]2(C)C(=O)CC[C@@H]12` [Compound 5], the IC50 in experiment [1] was > 100 µM. Moreover, at SERCA1, the “skeletal SERCA1 activity in the absence of PLN” value is given as “failed to affect”. Besides, in experiment [2], the “SERCA1 KdCa after reconstitution with PLN1–32” value is listed as “dose-dependently reversed the PLN-induced shift in KdCa” and the “SERCA1 Vmax after reconstitution with PLN1–32” value is reported as “unchanged”.
In the same order, the values of `C[C@]12CC[C@H](CC(=O)O)C[C@@H]1[C@@H](O)C[C@@H]1[C@@H]2CC[C@]2(C)C(=O)CC[C@@H]12` [Compound 8] are > 100 µM, “failed to affect”, “dose-dependently reversed the PLN-induced shift in KdCa” and “unchanged”.
